Four molecules from patent US5079257A, “Indoloquinone compounds” (priority 1986, dated 1992) can be followed below.

In general, LD50 refers to the dose expected to kill half of the subjects tested. Low readings indicate a more toxic substance, high ones a less toxic substance.

In brackets after ≈: the same amount, converted by molar mass. Where two headings read alike, the source gives them in different places.

The subject of series [1] is L1210 cells. Put plainly: L1210 activity (bioliquid assay), cytotoxicity. To be noted: Mus musculus. In kind it is cell-based. In short, it runs like this: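 Suspension culture in RPMI with 15% FCS and 2-mercaptoethanol (60 μmol). Continuous compound exposure for 48 hours at 37° C under 5% CO2 in humidified air. Cell numbers then counted on an electronic microcell counter.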

The subject of series [2] is Renal tumour line. Put plainly: Colony inhibition in vitro, continuous drug exposure (Freiburg). In kind it is cell-based. The note with it: Homo sapiens, read-out: colony formation treated/control (T/C), Renal; for activity at 1 µg/mL: 1.0 μg/ml. Here is the method:
(§1) Three indoloquinones were tested at the University of Freiburg with respect to their in vitro inhibition of colony formation of the following five human tumour cell lines: lung-NSCLC, breast, renal and two colon lines.

Series [3] has as its system Colon 2 tumour line. The description is as above. The note with it: Homo sapiens, read-out: colony formation treated/control (T/C), Colon 2; for activity at 1 µg/mL: 1.0 μg/ml. Type of series: cell-based. Here is the method: as §1
Series [4] has as its system Colon 1 tumour line. The series is described as above. Type of series: cell-based. To be noted: Homo sapiens, read-out: colony formation treated/control (T/C), Colon 1; for activity at 1 µg/mL: 1.0 μg/ml. Here is the method: as §1
A short description of series [5]: in vivo. Details: species or system mice. The note with it: mouse, IP, single dose, suspension in carboxymethyl cellulose (2%). On the procedure: The acute toxicity experiments were carried out with male C5 Black/Rij X CBA/Rij Fl hybrid mice at TNO, Rijswijk. The drugs were administrated IP as suspensions in carboxymethyl cellulose (2%) as a single dose at the first day.

For series [6], the system named is MCF7 breast cancer cells. Put plainly: In vitro panel of human tumour lines (TNO): MCF-7. Also: key: -: no inhibition of cell growth; +: total cell-kill. Type of series: cell-based. To be noted: about 72 hours. The method, boiled down: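 Cells in Dulbecco's medium with 10% foetal calf serum were seeded 48 h, then exposed continuously to increasing compound concentrations (final ethanol <1%) for about 72 h at 37° in 10% CO2. Crystal violet staining after fixation; inhibiting concentration estimated qualitatively.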

For series [7], the system named is A 204 cells; rhabdomyosarcoma. Briefly: In vitro panel of human tumour lines (TNO): A 204. Also: key: -: no inhibition of cell growth; +: total cell-kill. In kind it is cell-based. To be noted: about 72 hours. In short, it runs like this: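 Cells (5×10^4/ml, Dulbecco's medium + 10% FCS) grafted 48 h, then continuously exposed to compound (Hanks'/ethanol, final ethanol <1%) for about 72 h at 37°C, 10% CO2. Crystal violet fixation/staining; inhibiting concentration estimated qualitatively over increasing doses.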

Series [8] in a line: Half-wave reduction potentials / polarography (University of Utrecht). In kind it is physicochemical. In short, it runs like this:
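Polarographic half-wave potentials (E1/2) measured; only the first, quinone, reduction potential is reported.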

Series [9] deals with L1210 cells. Briefly: L1210 activity in clonogenic assay (TNO Rijswijk). Type of series: cell-based. The note with it: Mus musculus, L1210, 192 h, read-out: ID-50 L1210, clonogenic assay. An excerpt:
The indoloquinones II (formula II) have been tested in respect of their cytotoxic activity against L1210 cells and R-1 cells (Rhabdomyosarcoma Cells) in a bioliquid assay at the department of oncology of the Free University of Amsterdam (Table I). In addition to this seven compounds (E.O. 1, E.O. 2, E.O. 4, E.O. 7, E.O. 9, E.O. 16 and E.O. 17) have been tested on L1210 activity in a clonogenic assay at TNO, Rijswijk. Further, the lowest active doses of the compounds E.O. 1, E.O. 2, E.O. 4 and E.O. 9 have been determined at TNO Rijswijk, according to the method described by Lamberts et al. [Oncology, 40, 301 (1983)]. (Table II). Eight indoloquinones (E.O. 1, E.O. 2, E.O. 4, E.O. 4A, E.O. 8, E.O. 9, E.O. 33 and E.O. 35) have been tested in a panel of five human tumour lines (TNO Rijswijk; Table III). From the latter group three indoloquinones (E.O. 1, E.O. 4 and E.O. 9) have been selected for a cytotoxicity study, involving five slowly growing human tumour lines (University of Freiburg; Table IV).
The L1210 clonogenic assay used was an improved variant of the method described earlier by H. MARTIN et al. [Cancer Chemother., Rep., 51 451 (1967)] and L. M. van Putten et al. [Cancer Treat. Rep., 60, 373 (1976)] for the growth into colonies of L1210 cells in a soft agar medium. From a suspension culture ~100 L1210 Cells (0.1 ml) were plated into […] culture dishes (Falcon), containing 1 ml of soft agar growth medium and the compound to be tested in appropriate concentrations. The soft agar growth medium consisted of Dulbecco medium supplemented with 15.8% horse serum, 60 μmol 2-mercapto-ethanol, 20 mg/ml L-asparagine and 0.3% bacto agar (Difco).
The culture dishes were incubated at 37° C. in an atmosphere of 1% CO2 in humidified air for 8 days. After this period of continuous drug exposure, colonies were counted and dose-effect curves were made.

Where [10] appears, read: L1210, Table I, bioliquid assay, 48 hours, read-out: ID-50 L1210.
Where [11] appears, read: 8 days continuous exposure, TNO Rijswijk.

As for `COC1=CC(=O)c2c(c(COC(C)=O)c(/C=C/COC(C)=O)n2C)C1=O` [E.O. 1, 3-Acetoxymethyl-5-methoxy-1-methyl-2-[1H-indole-4,7-dione]prop-β-en-α-yl acetate], the IC50 was 2.3 µg/mL in series [1] (setting [10]) and 2.5 µg/mL in [9] (setting [11]). For the same molecule, the activity at 0.1 µg/mL in [2] (0.1 μg/ml) stood at 68%; in [3] (0.1 μg/ml), 24%; in series [4] (0.1 μg/ml), 37%. The activity at 1 µg/mL turned out to be 0% in [2], 3% in [3] and 21% in series [4]. The activity at 0.01 µg/mL in [3] (0.01 μg/ml) was 71%; in series [4] (0.01 μg/ml) it was 108%. Moreover, the LD50 in series [5] is 10 to 30 mg/kg. For the same molecule, the “in vitro activity score, MCF-7” value is “-” in series [6] (0.01 μg/ml), “-” in series [6] (0.1 μg/ml), “-” in series [6] (1.0 μg/ml) and “+” in series [6] (10 μg/ml). The “in vitro activity score, A 204” value in [7] (0.01 μg/ml) is “-”; in series [7] (0.1 μg/ml) it was “-”; in [7] (10 μg/ml) it was “+”. For the same molecule, the “direct current polarogram” value in [8] (DC-polarography) is “two or more reduction waves”. Further, the “half-wave potential E1.2, wave I” value in series [8] (pH = 8 vs Ag/AgCl) was -367 mV. The “half-wave potential E1.2, wave III” value in series [8] (pH = 8 vs Ag/AgCl) is -435 mV. The “half-wave potential E1.2, wave IV” value in series [8] (pH = 8 vs Ag/AgCl) is recorded as -775 mV.
In the case of `COC(=O)OC/C=C/c1c(COC(=O)OC)c2c(n1C)C(=O)C=C(OC)C2=O` [E.O. 2, Methyl 5-methoxy-3-methoxycarbonyloxymethyl-1-methyl-2-[1H-indole-4,7 dione]prop-β-en-α-yl carbonate], the IC50 in [1] (setting [10]) is 0.5 µg/mL (≈ 1.27 µM); in series [9] (setting [11]) it was 3.7 µg/mL (≈ 9.41 µM). In series [5], this molecule registered an LD50 of 30 to 100 mg/kg. Further, the “in vitro activity score, MCF-7” value in series [6] (0.01 μg/ml) is “-”; in series [6] (0.1 μg/ml), “-”; in series [6] (1.0 μg/ml), “-”; in [6] (10 μg/ml), “+”. Also, the “in vitro activity score, A 204” value is recorded as “-” in [7] (0.01 μg/ml), “-” in [7] (0.1 μg/ml), “-” in series [7] (1.0 μg/ml) and “+” in series [7] (10 μg/ml).
`CC(=O)OC/C=C/c1c(COC(C)=O)c2c(n1C)C(=O)C=C(N1CC1)C2=O` [E.O. 4, 3-Acetoxymethyl-5-aziridino-1-methyl-2-[1H-indole-4,7-dione]prop-β-en-α-yl acetate]: the IC50 was 1.6 µg/mL in [1] (L1210, 48 h, read-out: ID-50 L1210, Table VIII) and below 1 µg/mL in [9]. For the same molecule, the activity at 0.001 µg/mL came to 88% in series [2], 86% in series [3] and 51% in [4]. Besides, the values for the activity at 0.01 µg/mL in series [2], in series [3] and in [4] were 88%, 70% and 56%, respectively. Also, the activity at 0.1 µg/mL was determined as 41% in series [2], 11% in series [3] and 56% in series [4]. Moreover, the “in vitro activity score, MCF-7” value is given as “-” in series [6] (0.01 μg/ml), “-” in series [6] (0.1 μg/ml) and “+” in series [6] (10 μg/ml). In addition, the “in vitro activity score, A 204” value is “-” in series [7] (0.01 μg/ml), “-” in [7] (0.1 μg/ml), “+” in series [7] (1.0 μg/ml) and “+” in series [7] (10 μg/ml).
In the case of `Cn1c(/C=C/CO)c(CO)c2c1C(=O)C=C(N1CC1)C2=O` [E.O. 9, 5-Aziridino-3-hydroxymethyl-1-methyl-2-[1H-indole-4,7-dione]prop-β-en-α-ol], the IC50 worked out at 0.46 µg/mL (≈ 1.6 µM) in series [1] (L1210, 48 h, Table VIII, read-out: ID-50 L1210) and 0.8 µg/mL (≈ 2.77 µM) in [9] (setting [11]). Besides, the activity at 0.01 µg/mL in series [2] (0.01 μg/ml) was 123%; in series [3] (0.01 μg/ml), 136%; in series [4] (0.01 μg/ml), 51%. The results for the activity at 0.1 µg/mL in series [2] (0.1 μg/ml), in series [3] (0.1 μg/ml) and in [4] (0.1 μg/ml) were 8%, 20% and 47%, respectively. The activity at 1 µg/mL stood at 0% in series [2], 1% in series [3] and 9% in series [4]. This molecule also registered an LD50 in series [5] of 10 mg/kg. The “in vitro activity score, MCF-7” value in [6] (0.01 μg/ml) is “-”; in series [6] (0.1 μg/ml), “+”; in series [6] (1.0 μg/ml), “+”; in [6] (10 μg/ml), “+”. In addition, the “in vitro activity score, A 204” value is “-” in series [7] (0.01 μg/ml), “+” in [7] (0.1 μg/ml), “+” in [7] (1.0 μg/ml) and “+” in series [7] (10 μg/ml). For the same molecule, the “half-wave potential E1.2, wave I” value in series [8] (pH = 8 vs Ag/AgCl) is -370 mV. Also, the “half-wave potential E1.2, wave II” value in series [8] (pH = 8 vs Ag/AgCl) was -785 mV.
